EC50 and AC50 data for eleven molecules are collected here from patent publication US12344610B2, “APOL1 inhibitors and methods of use” (Maze Therapeutics, Inc., priority 2022, dated 2025).

Molecules are shown by their SMILES.

Common to all, as to assay type: cell-based
Test [1] concerns HEK293 cells overexpressing APOL1 G2. The test is described as follows: APOL1 G2 HEK293 cell rescue assay (reversal of cell death caused by overexpression of APOL1). Conditions: Homo sapiens, HEK293, HEK293 overexpressing APOL1 G2; geometric mean of at least 2 assay runs; † = single assay run. The procedure, abridged:
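Each compound tested in duplicate wells on one plate per run, with values usually the geometric mean across at least two runs on different days, occasionally from one run only. Read-out: concentration giving half-maximal rescue of APOL1 G2 overexpression-induced death of HEK293 cells.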

Test [2] concerns HEK293 clonal cell line overexpressing APOL1 G1. Briefly: APOL1 G1 HEK293 cell rescue assay (Example B3). Conditions: Homo sapiens, HEK293, HEK293 clonal line overexpressing APOL1 G1; geometric mean of at least 2 runs; † = single run; ¥ = concentration at 50% rescue estimated (no sigmoidal curve). The procedure, abridged: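 Rescue of cell death caused by APOL1 G1 overexpression was measured in a clonal HEK293 line. Compounds were tested in duplicate on one plate, and EC50s were geometric means across at least two runs on different days. Some values are estimated 50%-rescue concentrations where curve fitting failed.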

For another test, the target named is T1, APOL1 G2 (Homo sapiens, UniProt O14791, DEL388-389).
T1 construct: expressed in transfected cells; host or cells: HEK293 T-REx clonal line stably expressing GCaMP6f (HEK T-REx/GCaMP6f/APOL1 G2 K6.3), doxycycline induced
T1 sequence (O14791 with tags, fused parts or gaps DEL388-389): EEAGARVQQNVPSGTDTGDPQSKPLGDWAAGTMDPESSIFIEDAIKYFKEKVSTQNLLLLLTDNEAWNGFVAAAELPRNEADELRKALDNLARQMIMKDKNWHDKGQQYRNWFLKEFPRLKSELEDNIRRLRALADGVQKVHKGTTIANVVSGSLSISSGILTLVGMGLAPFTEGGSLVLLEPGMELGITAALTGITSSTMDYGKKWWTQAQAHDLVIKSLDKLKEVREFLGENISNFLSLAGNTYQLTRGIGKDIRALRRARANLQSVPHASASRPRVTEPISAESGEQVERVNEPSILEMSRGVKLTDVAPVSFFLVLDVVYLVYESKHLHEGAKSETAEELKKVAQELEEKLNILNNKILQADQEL
The test is described as follows: APOL1-mediated calcium transport (calcium influx) assay, HEK T-REx/GCaMP6f/APOL1 G2 K6.3 cells, FLIPR TETRA. Conditions: prevention of calcium influx; geometric mean of at least 2 assay runs; † = average of a technical replicate from a single assay run. The method in brief: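 A HEK293 T-REx clone stably expressing GCaMP6f had APOL1 G2 induced with doxycycline (20 ng/mL solution added) for 6 h. Cells were then washed into Ca2+-free Tyrode's buffer (pH 7.4) and preincubated with compounds (duplicate 8-point) for 10 min at room temperature. Ca2+ injection to 5 mM final produced FLIPR GCaMP fluorescence, giving AC50 for influx inhibition (geometric mean, ≥2 runs).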

Take `CC(C)(CO)c1ncc(OCCN2CCC3(CC2)C(=O)Nc2ccc(C#N)cc23)cn1` [Compound 432, 1′-(2-{[2-(1-hydroxy-2-methylpropan-2-yl)pyrimidin-5-yl]oxy}ethyl)-2-oxo-1,2-dihydrospiro[indole-3,4′-piperidine]-5-carbonitrile]: the EC50 (in general, the concentration giving half of the maximal effect) is 161 nM in test [1] and 288 nM in test [2]. Also, the AC50 (usually the concentration at which the activity in the assay is half-maximal) at APOL1 G2 was found to be 2560 nM.
`C[C@]1(O)C[C@@H](n2cnc3cc(OCCN4CCC5(CC4)C(=O)Nc4ccc(Cl)cc45)cc(C(F)F)c32)C1` [Compound 445, 5-chloro-1′-(2-{[7-(difluoromethyl)-1-[(cis)-3-hydroxy-3-methylcyclobutyl]-1H-1,3-benzodiazol-5-yl]oxy}ethyl)-1,2-dihydrospiro[indole-3,4′-piperidin]-2-one]: the EC50 in test [1] was 8.15 nM; in test [2] it was 29.4 nM. Besides, the AC50 on APOL1 G2 was determined as 1110 nM.
For `C[C@]1(O)C[C@@H](n2cnc3cc(OCCN4CCC5(CC4)C(=O)Nc4ccc(C#N)cc45)cc(C(F)F)c32)C1` [Compound 446, 1′-(2-{[7-(difluoromethyl)-1-[(cis)-3-hydroxy-3-methylcyclobutyl]-1H-1,3-benzodiazol-5-yl]oxy}ethyl)-2-oxo-1,2-dihydrospiro[indole-3,4′-piperidine]-5-carbonitrile] the same measures were 33.2 nM, 82.5 nM and 1180 nM.
On the same counts, the results for `C[C@]1(O)C[C@@H](n2cnc3cc(OCCN4CCC5(CC4)C(=O)Nc4ccc(Cl)cc45)cc(OC(F)F)c32)C1` [Compound 447, 5-chloro-1′-(2-{[7-(difluoromethoxy)-1-[(cis)-3-hydroxy-3-methylcyclobutyl]-1H-1,3-benzodiazol-5-yl]oxy}ethyl)-1,2-dihydrospiro[indole-3,4′-piperidin]-2-one] are 34.1 nM, 64.3 nM and 1130 nM.
On the same counts, the results for `C[C@]1(O)C[C@@H](n2cnc3cc(OCCN4CCC5(CC4)C(=O)Nc4ccc(C#N)cc45)cc(OC(F)F)c32)C1` [Compound 448, 1′-(2-{[7-(difluoromethoxy)-1-[(cis)-3-hydroxy-3-methylcyclobutyl]-1H-1,3-benzodiazol-5-yl]oxy}ethyl)-2-oxo-1,2-dihydrospiro[indole-3,4′-piperidine]-5-carbonitrile] are 112 nM, 687 nM and 1140 nM.
On to `CC(C)(O)c1ncc(OCCN2CCC3(CC2)C(=O)Nc2c(I)cc(Cl)cc23)cn1` [Compound 449, 5-chloro-1′-(2-((2-(2-hydroxypropan-2-yl)pyrimidin-5-yl)oxy)ethyl)-7-iodospiro[indoline-3,4′-piperidin]-2-one], for which the values for the EC50 in test [1] and in test [2] were 102 nM and 247 nM, respectively. Moreover, the AC50 at APOL1 G2 was determined as 609 nM.
As to `Cc1nc2cc(OCCN3CCC4(CC3)C(=O)Nc3ccc(Cl)cc34)cnc2n1[C@H]1C[C@@](C)(O)C1` [Compound 451, 5-chloro-1′-[2-({2-methyl-3-[(cis)-3-hydroxy-3-methylcyclobutyl]-3H-imidazo[4,5-b]pyridin-6-yl}oxy)ethyl]-1,2-dihydrospiro[indole-3,4′-piperidin]-2-one], the EC50 was 32.1 nM in test [1] and 115 nM in test [2]. Further, at APOL1 G2, the AC50 was determined as 459 nM.
As for `C[C@]1(O)C[C@@H](N2C(=O)NCc3cc(OCCN4CCC5(CC4)C(=O)Nc4ccc(Cl)cc45)cc(C(F)(F)F)c32)C1` [Compound 456, 5-chloro-1′-[2-({2-oxo-1-[(cis)-3-hydroxy-3-methylcyclobutyl]-8-(trifluoromethyl)-1,2,3,4-tetrahydroquinazolin-6-yl}oxy)ethyl]-1,2-dihydrospiro[indole-3,4′-piperidin]-2-one], the figures for the EC50 in test [1] and in test [2] were 28.2 nM and 98.2 nM, respectively. Besides, the AC50 at APOL1 G2 worked out at 1010 nM.
As to `CC1(C)OC(=O)c2cc(OCCN3CCC4(CC3)C(=O)Nc3ccc(Cl)cc34)cnc21` [Compound 458, 5-chloro-1′-[2-({7,7-dimethyl-5-oxo-5H,7H-furo[3,4-b]pyridin-3-yl}oxy)ethyl]-1,2-dihydrospiro[indole-3,4′-piperidin]-2-one], the EC50 is 16.5 nM in test [1] and 75.7 nM in test [2]. Further, the AC50 on APOL1 G2 worked out at 528 nM.
As for `[2H]C([2H])(Oc1cnc2c(c1)CCC(=O)N2[C@H]1C[C@](O)(C([2H])([2H])[2H])C1)C([2H])([2H])N1CCC2(CC1)C(=O)Nc1ccc(Cl)cc12` [Compound 462, 5-chloro-1′-[2-({7-oxo-8-[(cis)-3-hydroxy-3-(^2H3)methylcyclobutyl]-5,6,7,8-tetrahydro-1,8-naphthyridin-3-yl}oxy)(1,1,2,2-^2H4)ethyl]-1,2-dihydrospiro[indole-3,4′-piperidin]-2-one], the EC50 was 17.8 nM in test [1] and 53.4 nM in test [2]. Further, the AC50 at APOL1 G2 is 943 nM.
Take `[2H]C([2H])(Oc1cc(C(F)(F)F)c2c(c1)ncn2[C@H]1C[C@@](C)(O)C1)C([2H])([2H])N1CCC2(CC1)C(=O)Nc1ccc(Cl)cc12` [Compound 463, 5-chloro-1′-[2-({1-[(cis)-3-hydroxy-3-methylcyclobutyl]-7-(trifluoromethyl)-1H-1,3-benzodiazol-5-yl}oxy)(1,1,2,2-^2H4)ethyl]-1,2-dihydrospiro[indole-3,4′-piperidin]-2-one]: the values for the EC50 in test [1] and in test [2] were 5.84 nM and 13.2 nM, respectively. Also, on APOL1 G2, the half-maximal activity concentration (AC50) is 2840 nM.
